What was measured:
[1] = test system: Serratia marcenses CECT 274; conditions: Gram − Bacteria; cited from earlier work
[2] = test system: Clostridium perfringens ATCC 77454; conditions: Gram + Bacteria; cited from earlier work
[3] = test system: Citrobacter freundii ATCC 22636; conditions: Gram − Bacteria; cited from earlier work
[4] = test system: Escherichia coli ATCC 8739; conditions: Gram − Bacteria; cited from earlier work
[5] = human beings; cited from earlier work
[6] = test system: Bacillus cereus var mycoide ATCC 11778; conditions: Gram + Bacteria; cited from earlier work
[7] = test system: Chaetonium globosum ATCC 6205; conditions: Fungi; cited from earlier work
[8] = test system: Bordetella bronchiseptica ATCC 4617; conditions: Gram − Bacteria; cited from earlier work
[9] = test system: Staphylococcus aureus ATCC 6538; conditions: Gram + Bacteria; cited from earlier work
[10] = test system: Arthrobacter oxydans ATCC 8010; conditions: Gram + Bacteria; cited from earlier work
[11] = test system: Leuconostoc mesenteroides CETC 912; conditions: Gram + Bacteria; cited from earlier work
[12] = test system: Saccharomyces cerevisiae ATCC 9763; conditions: Yeast; cited from earlier work
[13] = test system: Aureobasidium pullulans ATCC 9348; conditions: Fungi; cited from earlier work
[14] = test system: Aspergillus niger ATCC 14604; conditions: Fungi; cited from earlier work
[15] = test system: Enterobacter aerogenes CECT 689; conditions: Gram − Bacteria; cited from earlier work
[16] = test system: Alcaligenes faecalis ATCC 8750; conditions: Gram − Bacteria; cited from earlier work
[17] = test system: Mycobacterium phlei ATCC 41423; conditions: listed under Gram − Bacteria; cited from earlier work
[18] = test system: Klebsiella pneumoniae var pneumoniae CECT 178; conditions: Gram − Bacteria; cited from earlier work
[19] = test system: endospores from Geobacillus stearothermophilus ATCC 12980; assay: Sporicidal activity, quantitative suspension test EN 13704:2002 (Example 3); assay type: cell-based; conditions: 40° C.; for calculated reduction (R) R=N×0.1/Na: 60 minutes; for Test of LAE sporicidal activity (Na), surviving spores count: water as interfering substance, N 1.3 × 10^6 cfu/mL
Description: (§1) The determination of the sporicidal activity of LAE has been carried out according to the European standard EN 13704:2002: “Chemical disinfectant—Quantitative suspension test for the evaluation of sporicidal activity of chemical disinfectants used in food, industrial, domestic and institutional areas—Test method and requirements”.
(§2) A test suspension containing endospores from Geobacillus stearothermophilus ATCC 12980 was prepared from a culture grown on a nutrient agar, to which additional sporulation enhancement ingredients were added. Plates were harvested with sterile water and endospores were purified by repeated centrifugations and resuspensions in water.
(§3) Neutralizer. The neutralizer mixture consisted of 30 g/L polysorbate 80 in water. The solution was intended to neutralize any chemicals so that these would not affect subsequent growth of the bacteria.
The sporicidal activity of a given product is defined by its capacity to reduce at least by 10^3 the amount of Geobacillus stearothermophilus bacterial spores in suspension, in the conditions established in the method.
(§4) The product was in contact with a suspension of bacterial spores during an established period of time of 60 minutes. An interfering substance can be added to the suspension, in this case water. Next, the effect of the product is neutralized by adding a neutralizer previously chosen, preceding to the surviving spores count.
(§5) • 1. Spore suspension obtained from a spored-form culture of Geobacillus stearothermophilus • 2. Count of the spore suspension of Geobacillus stearothermophilus. • 3. The possible toxic effect of the neutralizer on the spores in the absence of the product is valued. • 4. Validation of the dilution-neutralisation method. • 5. Evaluation of the inhibitory sporicide effect of the product. • 6. Result calculation. Results: Results are expressed as the reduction of viability of the spore suspension in regards to:
Tabulation of the Method and Test Validation Results (at 40° C.): […]

[20] = test system: Pseudomonas aeruginosa ATCC 9027; conditions: Gram − Bacteria; cited from earlier work
[21] = test system: Bacillus subtilis ATCC 6633; conditions: Gram + Bacteria; cited from earlier work
[22] = test system: Lactobacillus delbrueckii ssp lactis CECT 372; conditions: Gram + Bacteria; cited from earlier work
[23] = test system: endospores from Thermoanaerobacterium thermosaccharolyticum ATCC 7956; assay: Sporicidal activity, quantitative suspension test EN 13704:2002 (Example 4); assay type: cell-based; conditions: 20° C.; for calculated reduction R=N×0.1/Na: 60 minutes; for Test of LAE sporicidal activity (Na), surviving spores count: water as interfering substance, N 0.65 × 10^6 cfu/mL
Description: as §1
as §2, with “Thermoanaerobacterium thermosaccharolyticum” for “Geobacillus stearothermophilus”, “7956” for “12980”
as §3
The sporicidal activity of a given product is defined by its capacity to reduce at least by 10^3 the amount of Thermoanaerobacterium thermosaccharolyticum bacterial spores in suspension, in the conditions established in the method.
as §4
as §5, with “Thermoanaerobacterium thermosaccharolyticum.” for “Geobacillus stearothermophilus”, “Thermoanaerobacterium thermosaccharolyticum.” for “Geobacillus stearothermophilus.”
Tabulation of the Method and Test Validation Results (at 20° C.):
A product is considered sporicidal if its use results in a reduction (R) in the number of Thermoanaerobacterium thermosaccharolyticum bacterial spores equal to or above 10^3 after being in contact for 60 minutes in the conditions set in EN 13704:2002.

[24] = test system: Listeria monocytogenes ATCC 7644; conditions: Gram + Bacteria; cited from earlier work
[25] = 60 minutes contact, EN 13704:2002

## CCCCCCCCCCCC(=O)N[C@@H](CCCN=C(N)N)C(=O)OCC.Cl [LAE, ethyl ester of the lauramide of the arginine monohydrochloride]
[1]
  M.I.C.: 32 ppm
[2]
  M.I.C.: 16 ppm
[3]
  M.I.C.: 64 ppm
[4]
  M.I.C.: 32 ppm
[5]
  tolerability and toxicity in practical use: well tolerated and to display a very low toxicity to human beings
[6]
  M.I.C.: 32 ppm
[7]
  M.I.C.: 16 ppm
[8]
  M.I.C.: 128 ppm
[9]
  M.I.C.: 32 ppm
[10]
  M.I.C.: 64 ppm
[11]
  M.I.C.: 32 ppm
[12]
  M.I.C.: 32 ppm
[13]
  M.I.C.: 16 ppm
[14]
  M.I.C.: 32 ppm
[15]
  M.I.C.: 32 ppm
[16]
  M.I.C.: 64 ppm
[17]
  M.I.C.: 2 ppm
[18]
  M.I.C.: 32 ppm
[19]; 58 μg/ml of LAE
  calculated reduction (R) R=N×0.1/Na: < 10^3 cfu/mL
[19]; 115 μg/ml of LAE
  calculated reduction (R) R=N×0.1/Na: < 10^3 cfu/mL
[19]; 173 μg/ml of LAE
  calculated reduction (R) R=N×0.1/Na: > 10^3 cfu/mL
[19]; 230 μg/ml of LAE
  calculated reduction (R) R=N×0.1/Na: > 10^3 cfu/mL
[19]; 460 μg/ml of LAE
  calculated reduction (R) R=N×0.1/Na: > 10^3 cfu/mL
[19]; [25]
  concentration displaying sporicidal activity (reduction equal to or above 10^3): ≥ 173 μg/ml
[19]; LAE 58 μg/mL, 60 minutes contact
  Test of LAE sporicidal activity (Na), surviving spores count: 1.0 × 10^5 cfu/mL
[19]; LAE 115 μg/mL, 60 minutes contact
  Test of LAE sporicidal activity (Na), surviving spores count: 5.2 × 10^4 cfu/mL
[19]; LAE 173 μg/mL, 60 minutes contact
  Test of LAE sporicidal activity (Na), surviving spores count: <10^2 cfu/mL
[19]; LAE 230 μg/mL, 60 minutes contact
  Test of LAE sporicidal activity (Na), surviving spores count: <10^2 cfu/mL
[19]; LAE 460 μg/mL, 60 minutes contact
  Test of LAE sporicidal activity (Na), surviving spores count: <10^2 cfu/mL
[20]
  M.I.C.: 64 ppm
[21]
  M.I.C.: 16 ppm
[22]
  M.I.C.: 16 ppm
[23]; 32 μg/mL of LAE
  calculated reduction R=N×0.1/Na: < 10^3 cfu/mL
[23]; 51 μg/mL of LAE
  calculated reduction R=N×0.1/Na: < 10^3 cfu/mL
[23]; 102 μg/mL of LAE
  calculated reduction R=N×0.1/Na: > 10^3 cfu/mL
[23]; 205 μg/mL of LAE
  calculated reduction R=N×0.1/Na: > 10^3 cfu/mL
[23]; [25]
  concentration displaying sporicidal activity (reduction equal to or above 10^3): ≥ 102 μg/mL
[23]; LAE 32 μg/mL, 60 minutes contact
  Test of LAE sporicidal activity (Na), surviving spores count: 2.7 × 10^3 cfu/mL
[23]; LAE 51 μg/mL, 60 minutes contact
  Test of LAE sporicidal activity (Na), surviving spores count: 1.6 × 10^3 cfu/mL
[23]; LAE 102 μg/mL, 60 minutes contact
  Test of LAE sporicidal activity (Na), surviving spores count: <10^2 cfu/mL
[23]; LAE 205 μg/mL, 60 minutes contact
  Test of LAE sporicidal activity (Na), surviving spores count: <10^2 cfu/mL
[24]
  M.I.C.: 10 ppm
